According to ChEMBL document CHEMBL4385643, “Design of a brain-penetrant CDK4/6 inhibitor for glioblastoma” (Bioorg Med Chem Lett, 2019):

How the values were obtained:
[1] = molecular target: Aurora kinase B (Homo sapiens) (UniProt Q96GD4); assay: Inhibition of recombinant full length human His-tagged Aurora B expressed in baculovirus expression system at 0.1 uM using serine/threonine-1 peptide as substrate incubated for 60 mins by Z'-LYTE assay relative to control
[2] = molecular target: Serine/threonine-protein kinase BRSK1 (Homo sapiens) (UniProt Q8TDC3); assay: Inhibition of recombinant full length human GST-tagged BRSK1 expressed in baculovirus expression system at 0.1 uM using serine/threonine-21 peptide as substrate incubated for 60 mins by Z'-LYTE assay relative to control
Serine/threonine-protein kinase BRSK1 (Homo sapiens), sequence (Q8TDC3 whole entry): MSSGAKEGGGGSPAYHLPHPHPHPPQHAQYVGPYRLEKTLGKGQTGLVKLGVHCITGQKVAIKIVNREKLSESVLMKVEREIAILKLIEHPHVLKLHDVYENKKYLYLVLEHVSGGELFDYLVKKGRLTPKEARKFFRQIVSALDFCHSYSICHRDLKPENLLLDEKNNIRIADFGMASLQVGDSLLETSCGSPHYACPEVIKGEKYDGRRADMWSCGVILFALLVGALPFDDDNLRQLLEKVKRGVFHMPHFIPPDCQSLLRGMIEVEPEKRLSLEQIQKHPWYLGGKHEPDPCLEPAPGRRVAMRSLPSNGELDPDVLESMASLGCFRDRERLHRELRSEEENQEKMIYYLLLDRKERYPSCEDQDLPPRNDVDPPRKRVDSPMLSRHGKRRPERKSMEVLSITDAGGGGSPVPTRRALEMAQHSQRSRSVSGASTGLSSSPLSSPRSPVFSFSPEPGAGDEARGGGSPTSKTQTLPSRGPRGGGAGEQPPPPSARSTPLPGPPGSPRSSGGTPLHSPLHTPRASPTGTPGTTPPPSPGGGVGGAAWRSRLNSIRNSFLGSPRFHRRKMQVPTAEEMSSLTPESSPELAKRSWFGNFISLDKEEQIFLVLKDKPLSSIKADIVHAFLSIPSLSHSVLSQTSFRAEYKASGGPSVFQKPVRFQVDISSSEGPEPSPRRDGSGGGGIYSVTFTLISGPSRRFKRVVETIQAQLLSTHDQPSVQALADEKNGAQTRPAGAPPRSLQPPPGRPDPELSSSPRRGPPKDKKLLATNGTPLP

[3] = molecular target: Protein-tyrosine kinase 6 (Homo sapiens) (UniProt Q13882); assay: Inhibition of recombinant full length human His-tagged BRK expressed in baculovirus expression system at 0.1 uM using tyrosine-1 peptide as substrate incubated for 60 mins by Z'-LYTE assay relative to control
Protein-tyrosine kinase 6 (Homo sapiens), sequence (Q13882 whole entry, looked up): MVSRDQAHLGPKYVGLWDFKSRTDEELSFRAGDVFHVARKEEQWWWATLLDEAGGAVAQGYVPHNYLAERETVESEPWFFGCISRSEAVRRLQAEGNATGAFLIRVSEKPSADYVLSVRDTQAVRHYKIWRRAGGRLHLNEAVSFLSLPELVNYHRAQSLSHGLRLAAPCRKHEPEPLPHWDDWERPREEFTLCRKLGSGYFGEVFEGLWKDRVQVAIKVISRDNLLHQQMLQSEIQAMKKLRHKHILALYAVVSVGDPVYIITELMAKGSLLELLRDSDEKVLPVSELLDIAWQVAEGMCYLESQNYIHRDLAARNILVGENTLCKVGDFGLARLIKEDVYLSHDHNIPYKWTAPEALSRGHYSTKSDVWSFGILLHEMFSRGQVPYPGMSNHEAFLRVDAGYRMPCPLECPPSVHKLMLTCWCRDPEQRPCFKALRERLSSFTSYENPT

[4] = molecular target: Calcium/calmodulin-dependent protein kinase kinase 2 (Homo sapiens) (UniProt Q96RR4); assay: Inhibition of tracer 236 binding to recombinant full length human GST-tagged CAMKK2 expressed in baculovirus expression system at 0.1 uM measured after 60 mins by Lanthascreen assay relative to control
[5] = test system: Epidermal growth factor receptor (Homo sapiens), P00533 [L858R,T790M]; assay: Inhibition of recombinant human GST-tagged EGFR T790M/L858R mutant (668 to 1210: T790M/L858R residues)expressed in baculovirus expression system at 0.1 uM using tyrosine-4 peptide as substrate incubated for 60 mins by Z'-LYTE assay relative to control
[6] = molecular target: Receptor tyrosine-protein kinase erbB-2 (Homo sapiens) (UniProt P04626); assay: Inhibition of recombinant human His-tagged ERBB2 catalytic domain (676 to 1255 residues) expressed in baculovirus expression system at 0.1 uM using tyrosine-6 peptide as substrate incubated for 60 mins by Z'-LYTE assay relative to control
[7] = molecular target: Tyrosine-protein kinase JAK2 (Homo sapiens) (UniProt O60674); assay: Inhibition of recombinant human GST-tagged JAK2 catalytic domain (809 to 1153+9 residues) expressed in baculovirus expression system at 0.1 uM using tyrosine-6 peptide as substrate incubated for 60 mins by Z'-LYTE assay relative to control
[8] = molecular target: Mast/stem cell growth factor receptor Kit (Homo sapiens) (UniProt P10721); assay: Inhibition of recombinant human His-tagged KIT (544 to 976 residues) expressed in baculovirus expression system at 0.1 uM using tyrosine-6 peptide as substrate incubated for 60 mins by Z'-LYTE assay relative to control
Mast/stem cell growth factor receptor Kit (Homo sapiens), sequence (P10721 whole entry, the tested form may be a part): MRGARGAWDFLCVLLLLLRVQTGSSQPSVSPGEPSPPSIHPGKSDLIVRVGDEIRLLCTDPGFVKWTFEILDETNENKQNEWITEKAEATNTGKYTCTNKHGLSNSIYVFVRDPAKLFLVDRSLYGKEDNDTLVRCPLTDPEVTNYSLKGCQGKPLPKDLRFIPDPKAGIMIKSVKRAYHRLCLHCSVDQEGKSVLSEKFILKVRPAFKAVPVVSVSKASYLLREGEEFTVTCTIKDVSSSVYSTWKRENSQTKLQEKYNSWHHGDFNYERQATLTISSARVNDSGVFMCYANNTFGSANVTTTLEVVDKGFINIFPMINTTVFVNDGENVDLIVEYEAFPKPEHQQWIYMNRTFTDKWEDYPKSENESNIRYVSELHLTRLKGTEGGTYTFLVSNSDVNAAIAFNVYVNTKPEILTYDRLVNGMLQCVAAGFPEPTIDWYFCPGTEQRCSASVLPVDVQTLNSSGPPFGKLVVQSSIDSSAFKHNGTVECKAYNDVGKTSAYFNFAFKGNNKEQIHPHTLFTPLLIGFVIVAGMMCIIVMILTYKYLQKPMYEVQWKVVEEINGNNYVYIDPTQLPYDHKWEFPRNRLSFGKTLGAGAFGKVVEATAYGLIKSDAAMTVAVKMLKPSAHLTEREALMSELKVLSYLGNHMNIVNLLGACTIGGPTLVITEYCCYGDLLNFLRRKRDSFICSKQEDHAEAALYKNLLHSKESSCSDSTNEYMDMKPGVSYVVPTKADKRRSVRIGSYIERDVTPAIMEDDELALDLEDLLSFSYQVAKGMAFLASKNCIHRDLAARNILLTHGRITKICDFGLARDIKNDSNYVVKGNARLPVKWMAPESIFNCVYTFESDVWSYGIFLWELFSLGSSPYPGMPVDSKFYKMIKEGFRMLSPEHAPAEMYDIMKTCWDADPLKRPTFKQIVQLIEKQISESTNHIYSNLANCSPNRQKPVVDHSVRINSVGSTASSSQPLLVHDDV

[9] = molecular target: Dual specificity mitogen-activated protein kinase kinase 6 (Homo sapiens) (UniProt P52564); assay: Inhibition of recombinant full length human His-tagged MKK6 expressed in baculovirus expression system at 0.1 uM using serine/threonine-3 peptide as substrate incubated for 60 mins by Z'-LYTE assay relative to control
[10] = molecular target: Myosin light chain kinase, smooth muscle (Homo sapiens) (UniProt Q15746); assay: Inhibition of tracer 236 binding to recombinant full length human GST-tagged MYLK expressed in baculovirus expression system at 0.1 uM measured after 60 mins by Lanthascreen assay relative to control
Myosin light chain kinase, smooth muscle (Homo sapiens), sequence (Q15746 whole entry, the tested form may be a part): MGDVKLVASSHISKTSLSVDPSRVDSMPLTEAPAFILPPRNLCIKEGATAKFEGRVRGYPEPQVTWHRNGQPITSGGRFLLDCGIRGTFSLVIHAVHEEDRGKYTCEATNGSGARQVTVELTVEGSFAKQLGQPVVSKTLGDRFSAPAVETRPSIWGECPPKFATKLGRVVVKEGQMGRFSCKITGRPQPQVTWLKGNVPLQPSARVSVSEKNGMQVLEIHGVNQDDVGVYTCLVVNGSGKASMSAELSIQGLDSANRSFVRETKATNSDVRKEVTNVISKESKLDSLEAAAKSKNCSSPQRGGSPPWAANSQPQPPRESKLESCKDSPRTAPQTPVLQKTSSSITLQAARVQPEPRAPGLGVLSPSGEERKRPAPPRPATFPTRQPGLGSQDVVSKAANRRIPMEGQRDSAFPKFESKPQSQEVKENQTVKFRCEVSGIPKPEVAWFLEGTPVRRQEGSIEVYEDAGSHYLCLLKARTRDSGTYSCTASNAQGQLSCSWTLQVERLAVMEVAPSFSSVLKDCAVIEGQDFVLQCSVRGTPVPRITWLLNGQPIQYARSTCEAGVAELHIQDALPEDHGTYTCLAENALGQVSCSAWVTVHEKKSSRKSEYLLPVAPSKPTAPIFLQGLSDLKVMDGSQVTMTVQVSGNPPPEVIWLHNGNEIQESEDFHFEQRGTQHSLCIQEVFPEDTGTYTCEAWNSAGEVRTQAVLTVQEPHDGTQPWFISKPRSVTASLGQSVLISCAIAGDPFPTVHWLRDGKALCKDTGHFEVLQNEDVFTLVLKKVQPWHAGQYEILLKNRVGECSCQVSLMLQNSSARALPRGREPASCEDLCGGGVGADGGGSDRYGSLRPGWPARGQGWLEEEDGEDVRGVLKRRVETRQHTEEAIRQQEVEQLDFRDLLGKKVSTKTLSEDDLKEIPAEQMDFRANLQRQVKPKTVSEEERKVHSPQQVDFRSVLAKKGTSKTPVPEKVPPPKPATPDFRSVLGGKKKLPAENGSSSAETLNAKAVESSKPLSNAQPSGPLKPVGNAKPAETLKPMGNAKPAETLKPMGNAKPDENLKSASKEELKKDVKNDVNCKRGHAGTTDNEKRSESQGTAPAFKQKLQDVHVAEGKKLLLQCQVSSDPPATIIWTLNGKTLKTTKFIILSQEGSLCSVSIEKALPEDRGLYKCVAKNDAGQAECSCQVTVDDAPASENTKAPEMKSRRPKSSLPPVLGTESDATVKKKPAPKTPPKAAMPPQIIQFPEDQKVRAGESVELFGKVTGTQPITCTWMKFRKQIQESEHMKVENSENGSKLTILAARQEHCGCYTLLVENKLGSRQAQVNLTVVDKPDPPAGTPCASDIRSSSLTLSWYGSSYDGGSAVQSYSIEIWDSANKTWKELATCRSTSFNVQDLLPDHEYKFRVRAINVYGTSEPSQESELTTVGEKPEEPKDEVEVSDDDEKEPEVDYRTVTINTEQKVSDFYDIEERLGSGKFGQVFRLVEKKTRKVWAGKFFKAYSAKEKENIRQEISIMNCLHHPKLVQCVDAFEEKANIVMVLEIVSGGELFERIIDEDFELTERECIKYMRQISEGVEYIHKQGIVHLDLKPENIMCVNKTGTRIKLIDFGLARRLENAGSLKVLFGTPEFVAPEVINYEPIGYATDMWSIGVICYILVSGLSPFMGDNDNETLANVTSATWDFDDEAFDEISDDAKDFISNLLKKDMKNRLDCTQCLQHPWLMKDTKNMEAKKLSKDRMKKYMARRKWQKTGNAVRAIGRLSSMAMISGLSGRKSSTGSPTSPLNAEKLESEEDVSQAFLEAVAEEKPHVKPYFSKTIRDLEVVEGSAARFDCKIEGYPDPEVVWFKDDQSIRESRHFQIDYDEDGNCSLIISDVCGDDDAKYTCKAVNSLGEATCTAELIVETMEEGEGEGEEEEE

[11] = molecular target: Serine/threonine-protein kinase Nek1 (Homo sapiens) (UniProt Q96PY6); assay: Inhibition of recombinant full length human GST-tagged NEK1 catalytic domain (1 to 505 amino acids) expressed in baculovirus expression system at 0.1 uM using serine/threonine-7 peptide as substrate incubated for 60 mins by Z'-LYTE assay relative to control
[12] = molecular target: Serine/threonine-protein kinase PLK1 (Homo sapiens) (UniProt P53350); assay: Inhibition of recombinant full length human His-tagged PLK1 expressed in baculovirus expression system at 0.1 uM using serine/threonine-16 peptide as substrate incubated for 60 mins by Z'-LYTE assay relative to control
[13] = molecular target: Rho-associated protein kinase 2 (Homo sapiens) (UniProt O75116); assay: Inhibition of recombinant human GST-tagged ROCK2 catalytic domain (1 to 552 residues) expressed in baculovirus expression system at 0.1 uM using serine/threonine-13 peptide as substrate incubated for 60 mins by Z'-LYTE assay relative to control
[14] = molecular target: Macrophage-stimulating protein receptor (Homo sapiens) (UniProt Q04912); assay: Inhibition of recombinant human GST-tagged RON catalytic domain (983 to 1400 residues) expressed in baculovirus expression system at 0.1 uM using tyrosine-6 peptide as substrate incubated for 60 mins by Z'-LYTE assay relative to control
[15] = molecular target: SRSF protein kinase 1 (Homo sapiens) (UniProt Q96SB4); assay: Inhibition of recombinant full length human His-tagged SRPK1 expressed in baculovirus expression system at 0.1 uM using serine/threonine-18 peptide as substrate incubated for 60 mins by Z'-LYTE assay relative to control
[16] = molecular target: Tyrosine-protein kinase Srms (Homo sapiens) (UniProt Q9H3Y6); assay: Inhibition of recombinant full length human GST-tagged SRM expressed in baculovirus expression system at 0.1 uM using tyrosine-1 peptide as substrate incubated for 60 mins by Z'-LYTE assay relative to control
[17] = molecular target: Serine/threonine-protein kinase TBK1 (Homo sapiens) (UniProt Q9UHD2); assay: Inhibition of recombinant full length human GST-tagged TBK1 expressed in insect expression system at 0.1 uM using serine/threonine-5 peptide as substrate incubated for 60 mins by Z'-LYTE assay relative to control
[18] = molecular target: Dual specificity protein kinase TTK (Homo sapiens) (UniProt P33981); assay: Inhibition of tracer 236 binding to recombinant full length human GST-tagged TTK expressed in baculovirus expression system at 0.1 uM measured after 60 mins by Lanthascreen assay
[19] = molecular target: Non-receptor tyrosine-protein kinase TYK2 (Homo sapiens) (UniProt P29597); assay: Inhibition of recombinant human GST-tagged TYK2 catalytic domain (833 to 1187 residues) expressed in baculovirus expression system at 0.1 uM using tyrosine-3 peptide as substrate incubated for 60 mins by Z'-LYTE assay relative to control
[20] = molecular target: High affinity nerve growth factor receptor (Homo sapiens) (UniProt P04629); assay: Inhibition of recombinant human His-tagged TRKA catalytic domain (441 to 796 residues) expressed in baculovirus expression system at 0.1 uM using tyrosine-1 peptide as substrate incubated for 60 mins by Z'-LYTE assay relative to control
High affinity nerve growth factor receptor (Homo sapiens), sequence (P04629 33-796 limits assumed): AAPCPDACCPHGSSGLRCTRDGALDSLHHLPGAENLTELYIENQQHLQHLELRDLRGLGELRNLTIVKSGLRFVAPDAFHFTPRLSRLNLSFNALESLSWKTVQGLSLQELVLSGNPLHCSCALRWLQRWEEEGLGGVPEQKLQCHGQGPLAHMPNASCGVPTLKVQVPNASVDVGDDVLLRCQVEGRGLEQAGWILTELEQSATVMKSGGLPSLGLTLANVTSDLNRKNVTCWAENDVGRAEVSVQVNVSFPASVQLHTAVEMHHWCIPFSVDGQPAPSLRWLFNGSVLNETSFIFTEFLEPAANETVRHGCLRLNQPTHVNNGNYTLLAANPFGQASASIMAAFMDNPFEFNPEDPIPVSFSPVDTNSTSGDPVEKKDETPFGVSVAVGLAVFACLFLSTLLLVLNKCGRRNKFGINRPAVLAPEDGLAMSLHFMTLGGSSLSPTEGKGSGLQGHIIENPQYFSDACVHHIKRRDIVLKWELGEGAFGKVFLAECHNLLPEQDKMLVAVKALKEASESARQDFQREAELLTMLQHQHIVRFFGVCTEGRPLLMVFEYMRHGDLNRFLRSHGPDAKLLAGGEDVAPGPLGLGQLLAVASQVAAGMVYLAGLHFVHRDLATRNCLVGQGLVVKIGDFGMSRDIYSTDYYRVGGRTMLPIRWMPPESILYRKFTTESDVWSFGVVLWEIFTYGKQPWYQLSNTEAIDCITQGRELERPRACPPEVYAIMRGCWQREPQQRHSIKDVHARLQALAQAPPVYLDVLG

[21] = molecular target: Serine/threonine-protein kinase WNK2 (Homo sapiens) (UniProt Q9Y3S1); assay: Inhibition of tracer 1710 binding to recombinant human His-tagged WNK2 catalytic domain (166 to 489 residues) expressed in baculovirus expression system at 0.1 uM measured after 60 mins by Lanthascreen assay relative to control
[22] = molecular target: Serine/threonine-protein kinase 25 (Homo sapiens) (UniProt O00506); assay: Inhibition of recombinant full length human GST-tagged YSK1 expressed in baculovirus expression system at 0.1 uM using serine/threonine-7 peptide as substrate incubated for 60 mins by Z'-LYTE assay relative to control
[23] = molecular target: Mitogen-activated protein kinase 11 (Homo sapiens) (UniProt Q15759); assay: Inhibition of recombinant full length human His-tagged p38beta expressed in baculovirus expression system at 0.1 uM using serine/threonine-15 peptide as substrate incubated for 60 mins by Z'-LYTE assay relative to control

Row | SMILES | inhibition [1] [%] | inhibition [2] [%] | inhibition [3] [%] | inhibition [4] [%] | inhibition [5] [%] | inhibition [6] [%] | inhibition [7] [%] | inhibition [8] [%] | inhibition [9] [%] | inhibition [10] [%] | inhibition [11] [%] | inhibition [12] [%] | inhibition [13] [%] | inhibition [14] [%] | inhibition [15] [%] | inhibition [16] [%] | inhibition [17] [%] | inhibition [18] [%] | inhibition [19] [%] | inhibition [20] [%] | other results
1 | CCN1CCN(Cc2ccc(Nc3ncc(F)c(-c4cc(F)c5nc(C)n(C(C)C)c5c4)n3)nc2)CC1 [ABEMACICLIB] | 14.5 | 18 | 5 | 69.4 | 46 | 1.5 | 6 | 0 | 14.3 | 14.7 | 14 | 8.5 | 18.5 | 10.5 | 6 | 6 | 43 | 54.5 | 3 | 31 | inhibition [21]: 2.7%; inhibition [22]: 15%; inhibition [23]: 8%
2 | CCN1CC2(C1)CN(c1ccc(Nc3ncc(F)c(-c4cnn5c4[C@H](C)CCCC5)n3)nc1)C2 | 7.5 | 44 | 6.5 | 44 | 32.5 | 0 | 18.5 | -0.5 | 0 | 5.5 | 0 | 2 | 7 | 7 | 4.5 | 0 | 8 | 41 | 32.5 | 20 | inhibition [21]: 0.5%; inhibition [22]: 10.5%; inhibition [23]: 6%
